Data from PubChem BioAssay (NCI).
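Abbreviation: GI50, concentration required for 50% inhibition of growth. At the TGI there is no net growth.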

Assays:
Assay in all cases: inhibition of tumour cell growth, NCI panel, 384-well format
HL-60(TB) leukemia = tested on: HL-60(TB) leukemia
NCI-H322M lung = tested on: NCI-H322M lung
SK-MEL-2 melanoma = tested on: SK-MEL-2 melanoma
SF-539 CNS = tested on: SF-539 CNS
MOLT-4 leukemia = tested on: MOLT-4 leukemia
OVCAR-4 ovarian = tested on: OVCAR-4 ovarian
SF-295 CNS = tested on: SF-295 CNS
U251 glioblastoma = tested on: U251 glioblastoma
RXF 393 renal = tested on: RXF 393 renal
M14 melanoma = tested on: M14 melanoma
786-0 renal = tested on: 786-0 renal
A549 NSCLC = tested on: A549 NSCLC
A498 renal = tested on: A498 renal
SNB-19 CNS = tested on: SNB-19 CNS
KM12 colon = tested on: KM12 colon
MCF7 breast = tested on: MCF7 breast
UACC-257 melanoma = tested on: UACC-257 melanoma
UACC-62 melanoma = tested on: UACC-62 melanoma
HCC-2998 colon = tested on: HCC-2998 colon
HCT-116 colon = tested on: HCT-116 colon
BT-549 breast = tested on: BT-549 breast
COLO 205 colon = tested on: COLO 205 colon
NCI-H23 lung = tested on: NCI-H23 lung
UO-31 renal = tested on: UO-31 renal
HCT-15 colon = tested on: HCT-15 colon
LOX IMVI melanoma = tested on: LOX IMVI melanoma
CCRF-CEM leukemia = tested on: CCRF-CEM leukemia
SK-OV-3 ovarian = tested on: SK-OV-3 ovarian
MDA-MB-435 melanoma = tested on: MDA-MB-435 melanoma
SK-MEL-5 melanoma = tested on: SK-MEL-5 melanoma
HOP-62 NSCLC = tested on: HOP-62 NSCLC
SW-620 colon = tested on: SW-620 colon
IGROV1 ovarian = tested on: IGROV1 ovarian
ACHN renal = tested on: ACHN renal
HOP-92 NSCLC = tested on: HOP-92 NSCLC
MDA-MB-231 breast = tested on: MDA-MB-231 breast
PC-3 prostate = tested on: PC-3 prostate
SF-268 CNS = tested on: SF-268 CNS
DU-145 prostate = tested on: DU-145 prostate
OVCAR-8 ovarian = tested on: OVCAR-8 ovarian
NCI-H460 NSCLC = tested on: NCI-H460 NSCLC
NCI-H522 lung = tested on: NCI-H522 lung
SNB-75 CNS = tested on: SNB-75 CNS
SK-MEL-28 melanoma = tested on: SK-MEL-28 melanoma
MALME-3M melanoma = tested on: MALME-3M melanoma
SR leukemia = tested on: SR leukemia
T-47D breast = tested on: T-47D breast
RPMI-8226 leukemia = tested on: RPMI-8226 leukemia
OVCAR-3 ovarian = tested on: OVCAR-3 ovarian
K-562 leukemia = tested on: K-562 leukemia
MDA-MB-468 breast = tested on: MDA-MB-468 breast
NCI-H226 lung = tested on: NCI-H226 lung
EKVX NSCLC = tested on: EKVX NSCLC
OVCAR-5 ovarian = tested on: OVCAR-5 ovarian
NCI/ADR-RES ovarian = tested on: NCI/ADR-RES ovarian
SN12C renal = tested on: SN12C renal
CAKI-1 renal = tested on: CAKI-1 renal
TK-10 renal = tested on: TK-10 renal
HT29 colon = tested on: HT29 colon

Question: With `O=C1Cc2cc(C(=O)NC3C[C@H]4CC[C@@H](C3)N4S(=O)(=O)CC3CCN(CCCC(F)(F)F)CC3)c(Cl)cc2N1` (stereo partly drawn) as the compound, how does the GI50 (HL-60(TB) leukemia) read?
Answer: > 46.1 µM

Question: What about the TGI (HL-60(TB) leukemia) of the same compound?
Answer: > 60.4 µM

Question: And the GI50 (NCI-H322M lung)?
Answer: > 100 µM

Question: And the TGI (NCI-H322M lung)?
Answer: > 100 µM

Question: And the GI50 (SK-MEL-2 melanoma)?
Answer: > 87 µM

Question: What about the TGI (SK-MEL-2 melanoma) of the same compound?
Answer: > 100 µM

Question: And the GI50 (SF-539 CNS)?
Answer: > 100 µM

Question: What about the TGI (SF-539 CNS) of the same compound?
Answer: > 100 µM

Question: And the GI50 (MOLT-4 leukemia)?
Answer: > 67 µM

Question: And the TGI (MOLT-4 leukemia)?
Answer: > 100 µM

Question: What about the GI50 (OVCAR-4 ovarian) of the same compound?
Answer: > 100 µM

Question: What about the TGI (OVCAR-4 ovarian) of the same compound?
Answer: > 100 µM

Question: What about the GI50 (SF-295 CNS) of the same compound?
Answer: > 100 µM

Question: And the TGI (SF-295 CNS)?
Answer: > 100 µM

Question: And the GI50 (U251 glioblastoma)?
Answer: > 100 µM

Question: What about the TGI (U251 glioblastoma) of the same compound?
Answer: > 100 µM

Question: And the GI50 (RXF 393 renal)?
Answer: > 78.5 µM

Question: And the TGI (RXF 393 renal)?
Answer: > 100 µM

Question: And the GI50 (M14 melanoma)?
Answer: > 100 µM

Question: What about the TGI (M14 melanoma) of the same compound?
Answer: > 100 µM

Question: What about the GI50 ([…]-0 renal) of the same compound?
Answer: > 100 µM

Question: What about the TGI (786-0 renal) of the same compound?
Answer: > 100 µM

Question: What about the GI50 (A549 NSCLC) of the same compound?
Answer: > 51 µM

Question: And the TGI (A549 NSCLC)?
Answer: > 81 µM

Question: And the GI50 (A498 renal)?
Answer: > 100 µM

Question: What about the TGI (A498 renal) of the same compound?
Answer: > 100 µM

Question: What about the GI50 (SNB-19 CNS) of the same compound?
Answer: > 49.8 µM

Question: And the TGI (SNB-19 CNS)?
Answer: > 74.9 µM

Question: And the GI50 (KM12 colon)?
Answer: > 100 µM

Question: And the TGI (KM12 colon)?
Answer: > 100 µM

Question: What about the GI50 (MCF7 breast) of the same compound?
Answer: > 100 µM

Question: And the TGI (MCF7 breast)?
Answer: > 100 µM

Question: And the GI50 (UACC-257 melanoma)?
Answer: > 100 µM

Question: And the TGI (UACC-257 melanoma)?
Answer: > 100 µM

Question: And the GI50 (UACC-62 melanoma)?
Answer: > 100 µM

Question: And the TGI (UACC-62 melanoma)?
Answer: > 100 µM

Question: And the GI50 (HCC-2998 colon)?
Answer: > 100 µM

Question: What about the TGI (HCC-2998 colon) of the same compound?
Answer: > 100 µM

Question: And the GI50 (HCT-116 colon)?
Answer: > 42 µM

Question: And the TGI (HCT-116 colon)?
Answer: > 56.5 µM

Question: And the GI50 (BT-549 breast)?
Answer: > 49.1 µM

Question: What about the TGI (BT-549 breast) of the same compound?
Answer: > 73.8 µM

Question: What about the GI50 (COLO 205 colon) of the same compound?
Answer: > 78 µM

Question: And the TGI (COLO 205 colon)?
Answer: > 100 µM

Question: And the GI50 (NCI-H23 lung)?
Answer: > 52.9 µM

Question: And the TGI (NCI-H23 lung)?
Answer: > 71.2 µM

Question: And the GI50 (UO-31 renal)?
Answer: 23.2 µM

Question: What about the TGI (UO-31 renal) of the same compound?
Answer: 47.5 µM

Question: What about the GI50 (HCT-15 colon) of the same compound?
Answer: > 46.3 µM

Question: And the TGI (HCT-15 colon)?
Answer: > 64.5 µM

Question: What about the GI50 (LOX IMVI melanoma) of the same compound?
Answer: 19.2 µM

Question: And the TGI (LOX IMVI melanoma)?
Answer: 33.8 µM

Question: What about the GI50 (CCRF-CEM leukemia) of the same compound?
Answer: > 43.8 µM

Question: What about the TGI (CCRF-CEM leukemia) of the same compound?
Answer: > 57.7 µM

Question: And the GI50 (SK-OV-3 ovarian)?
Answer: > 47.3 µM

Question: What about the TGI (SK-OV-3 ovarian) of the same compound?
Answer: > 72.8 µM

Question: What about the GI50 (MDA-MB-435 melanoma) of the same compound?
Answer: > 100 µM

Question: What about the TGI (MDA-MB-435 melanoma) of the same compound?
Answer: > 100 µM

Question: And the GI50 (SK-MEL-5 melanoma)?
Answer: > 43.5 µM

Question: What about the TGI (SK-MEL-5 melanoma) of the same compound?
Answer: > 57.5 µM

Question: And the GI50 (HOP-62 NSCLC)?
Answer: > 49.6 µM

Question: And the TGI (HOP-62 NSCLC)?
Answer: > 73.6 µM

Question: And the GI50 (SW-620 colon)?
Answer: > 58.1 µM

Question: What about the TGI (SW-620 colon) of the same compound?
Answer: > 100 µM

Question: And the GI50 (IGROV1 ovarian)?
Answer: > 57.9 µM

Question: What about the TGI (IGROV1 ovarian) of the same compound?
Answer: > 100 µM

Question: And the GI50 (ACHN renal)?
Answer: > 50.1 µM

Question: And the TGI (ACHN renal)?
Answer: > 77.9 µM

Question: And the GI50 (HOP-92 NSCLC)?
Answer: > 100 µM

Question: And the TGI (HOP-92 NSCLC)?
Answer: > 100 µM

Question: What about the GI50 (MDA-MB-231 breast) of the same compound?
Answer: > 100 µM

Question: What about the TGI (MDA-MB-231 breast) of the same compound?
Answer: > 100 µM

Question: And the GI50 (PC-3 prostate)?
Answer: > 52.1 µM

Question: What about the TGI (PC-3 prostate) of the same compound?
Answer: > 74.7 µM

Question: And the GI50 (SF-268 CNS)?
Answer: > 100 µM

Question: What about the TGI (SF-268 CNS) of the same compound?
Answer: > 100 µM

Question: And the GI50 (DU-145 prostate)?
Answer: > 51.2 µM

Question: What about the TGI (DU-145 prostate) of the same compound?
Answer: > 80 µM

Question: What about the GI50 (OVCAR-8 ovarian) of the same compound?
Answer: > 44.1 µM

Question: And the TGI (OVCAR-8 ovarian)?
Answer: > 61.9 µM

Question: What about the GI50 (NCI-H460 NSCLC) of the same compound?
Answer: > 100 µM

Question: What about the TGI (NCI-H460 NSCLC) of the same compound?
Answer: > 100 µM

Question: What about the GI50 (NCI-H522 lung) of the same compound?
Answer: > 44.7 µM

Question: And the TGI (NCI-H522 lung)?
Answer: > 58.9 µM

Question: And the GI50 (SNB-75 CNS)?
Answer: > 100 µM

Question: And the TGI (SNB-75 CNS)?
Answer: > 100 µM

Question: And the GI50 (SK-MEL-28 melanoma)?
Answer: > 100 µM

Question: And the TGI (SK-MEL-28 melanoma)?
Answer: > 100 µM

Question: What about the GI50 (MALME-3M melanoma) of the same compound?
Answer: > 100 µM

Question: What about the TGI (MALME-3M melanoma) of the same compound?
Answer: > 100 µM

Question: What about the GI50 (SR leukemia) of the same compound?
Answer: 38.7 µM

Question: And the TGI (SR leukemia)?
Answer: 99.3 µM

Question: What about the GI50 (T-47D breast) of the same compound?
Answer: 60.3 µM

Question: What about the TGI (T-47D breast) of the same compound?
Answer: > 100 µM

Question: And the GI50 (RPMI-8226 leukemia)?
Answer: > 45.6 µM

Question: And the TGI (RPMI-8226 leukemia)?
Answer: > 59.3 µM

Question: And the GI50 (OVCAR-3 ovarian)?
Answer: > 45 µM

Question: What about the TGI (OVCAR-3 ovarian) of the same compound?
Answer: > 63.5 µM

Question: What about the GI50 (K-562 leukemia) of the same compound?
Answer: > 42.3 µM

Question: What about the TGI (K-562 leukemia) of the same compound?
Answer: > 56.5 µM

Question: And the GI50 (MDA-MB-468 breast)?
Answer: 25.5 µM

Question: What about the TGI (MDA-MB-468 breast) of the same compound?
Answer: 57.7 µM

Question: What about the GI50 (NCI-H226 lung) of the same compound?
Answer: > 100 µM

Question: What about the TGI (NCI-H226 lung) of the same compound?
Answer: > 100 µM

Question: And the GI50 (EKVX NSCLC)?
Answer: > 100 µM

Question: What about the TGI (EKVX NSCLC) of the same compound?
Answer: > 100 µM

Question: What about the GI50 (OVCAR-5 ovarian) of the same compound?
Answer: > 49.9 µM

Question: What about the TGI (OVCAR-5 ovarian) of the same compound?
Answer: > 73.1 µM

Question: And the GI50 (NCI/ADR-RES ovarian)?
Answer: > 100 µM

Question: And the TGI (NCI/ADR-RES ovarian)?
Answer: > 100 µM

Question: And the GI50 (SN12C renal)?
Answer: > 62.4 µM

Question: And the TGI (SN12C renal)?
Answer: > 100 µM

Question: What about the GI50 (CAKI-1 renal) of the same compound?
Answer: > 46.2 µM

Question: What about the TGI (CAKI-1 renal) of the same compound?
Answer: > 65.5 µM

Question: And the GI50 (TK-10 renal)?
Answer: > 46.4 µM

Question: What about the TGI (TK-10 renal) of the same compound?
Answer: > 65.3 µM

Question: And the GI50 (HT29 colon)?
Answer: > 100 µM

Question: What about the TGI (HT29 colon) of the same compound?
Answer: > 100 µM
